We go through six molecules from US20250352561A1, “COMPOSITIONS AND METHODS USING TETRAHYDROCANNABINOL AND COMPOSITIONS INCLUDING SAME FOR TREATING INDICATIONS INVOLVING INFLAMMATION” (priority 2023, published 2025).

The conditions of data set [1]: cited from earlier work.
For data set [2] the following is noted: in vivo; cited from earlier work.
In data set [3] the test system is COVID-19-positive patients hospitalized for hypoxia. The data set is described as follows: Comparative analysis of dronabinol alone vs dronabinol plus fluvoxamine in COVID-19-positive patients hospitalized for hypoxia (Example 8, Table 6).
Method: From October 2020 through December of 2020 a single infectious disease specialist treated consecutive adult COVID-19-positive patients hospitalized for hypoxia with oral dronabinol in addition to then current standard of care which consisted of ceftriaxone, azithromycin, dexamethasone, remdesivir, subcutaneous heparin, and convalescent plasma in addition to respiratory support per standard ICU protocols. Nine patients received 2.5 mg twice orally daily and 68 patients received 5 mg orally twice daily. A retrospective control group of consecutively treated COVID-19-positive patients hospitalized for hypoxia from June 2020 through August 2020, was treated with the same standard of care.
15, 2021, twelve consecutive un-vaccinated COVID-19-positive patients hospitalized for hypoxia were treated by a single physician. They received current standard of care which consisted of ceftriaxone, azithromycin, dexamethasone, remdesivir, and Eliquis in addition to respiratory support per standard ICU protocols. […] One patient was excluded from analysis due to pre-COVID-19 oxygen dependence, and because they were still in the hospital as of this writing on their twelfth hospital day.
For data set [4], the system named is COVID-19 patients who required supplemental oxygen. The data set is described as follows: Retrospective clinical study of dronabinol plus standard of care in hospitalized COVID-19 patients requiring oxygen (Example 1). The class given is in vivo, human.
The conditions of data set [5]: cited from earlier work. This is another data set of the same source.
The conditions of data set [6]: fasted, n=34, cited from earlier work.
Data set [7] has as its system cytokine storm. The following applies: cited from earlier work.
For data set [8], the system named is norepinephrine reuptake. The conditions noted are these: in vitro, rats; cited from earlier work.
Data set [9] deals with serotonin uptake. The conditions noted are these: in vitro, rats; cited from earlier work.
The conditions of data set [10]: cited from earlier work. This is another data set of the same source.
For data set [11] the following is noted: human, in vivo; cited from earlier work.
Data set [12] deals with plasma protein, mostly albumin. The following applies: concentration range of 20 to 2000 ng/mL, cited from earlier work.
The subject of data set [13] is muscarinic receptors. The following applies: in vitro; cited from earlier work.
The conditions of data set [14]: hepatic dysfunction vs healthy subjects, cross study comparison; cited from earlier work.
In data set [15] the test system is alpha adrenergic receptors. The following applies: in vitro; cited from earlier work.
The conditions of data set [16]: cited from earlier work; for Multiple dose elimination half-life: steady state.
For data set [17], the system named is histaminergic receptors. The following applies: in vitro; cited from earlier work.
The subject of data set [18] is neuronal uptake of serotonin. The following applies: in vitro as well as in vivo; cited from earlier work.
In data set [19] the test system is beta adrenergic receptors. The conditions noted are these: in vitro; cited from earlier work.
In data set [20] the test system is dopaminergic receptors. The following applies: in vitro; cited from earlier work.
Data set [21] concerns the target sigma-1 non-opioid receptor (Homo sapiens, UniProt Q99720). The conditions noted are these: compared with all pharmaceutical chemicals tested so far; cited from earlier work.

Structures can show the parent of a compound that is named as a salt. Where two headings read alike, the source gives them in different places.

Sequence of sigma-1 non-opioid receptor (Q99720 whole entry): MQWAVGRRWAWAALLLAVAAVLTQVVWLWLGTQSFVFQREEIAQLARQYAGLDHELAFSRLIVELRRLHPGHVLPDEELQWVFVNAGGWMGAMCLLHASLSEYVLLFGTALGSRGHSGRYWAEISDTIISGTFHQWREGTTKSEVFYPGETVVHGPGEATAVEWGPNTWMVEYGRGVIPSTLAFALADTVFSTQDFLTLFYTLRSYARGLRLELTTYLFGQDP

With `CCCCCc1cc(O)c2c(c1)OC(C)(C)[C@@H]1CCC(CO)=C[C@@H]21` [11-OH-delta-9-THC], the “Plasma concentration of principal active metabolite relative to Δ9-THC” value in data set [1] (plasma) is “approximately equal concentrations”.
For `CCCCCc1cc(O)c2c(c1)OC(C)(C)[C@@H]1CCC(C)=C[C@@H]21` [dronabinol, (−)-(6aR,10aR)-6,6,9-trimethyl-3-pentyl-6a,7,8,10a-tetrahydro-6H-benzo[c]-chromen-1-ol], the “Reported fatality from overdosage” value in data set [2] was “has not had a reported fatality from overdosage”. For the same molecule, the “# Survived” value in [3] (2.5 mg Dronabinol, total 9 in group) amounted to 8; in [3] (5 mg Dronabinol, total 68 in group), 64. In data set [3] (5 mg Dronabinol, length of hospital stay), the LOS was 8.8. In [4] (among the 77 patients in the treatment group), the Deaths was determined as 5. The “Average first peak C-reactive protein (CRP) levels, difference (lower in treatment group)” value in data set [4] (vs control, p-value of 0.07, not statistically significant) came out at 14%. Besides, the “Time for which low levels of metabolites are detected in urine and feces” value in data set [1] (following single dose administration) is reported as “more than 5 weeks”. The “Oral dose recovered unchanged in the feces” value in data set [1] (in vivo, po) is recorded as “Less than 5%”. The “Administered dose reaching the systemic circulation” value in data set [1] (oral dose) was 10-20%. The “Absorbed after oral dose” value in [1] (single oral doses) is given as 90-95%. For the same molecule, the “Initial (alpha) half-life” value in data set [1] (two-compartment model) is on record as “about 4 hours”. Moreover, in data set [1] (within 72 hours), the “Radio-labeled oral dose recovered from the feces” value is listed as “about half”. Besides, the “Duration of appetite stimulant effect” value in data set [5] (after administration) was at least 24 h. The “Time to tolerance to cardiovascular and subjective adverse CNS effects” value in data set [5] (healthy male volunteers (N=12), 210 mg/day orally in divided doses for 16 days) is at most 12 days. Also, the “Persistence of appetite stimulant effect” value in data set [5] (patients with AIDS, Δ9-THC capsules 2.5 mg/day to 20 mg/day) was “sustained for up to five months”. In addition, the “AUC (0-12), Mean (SD)” value in [6] (BID Dose 2.5 mg) is recorded as 2.88 (1.57) ng*hr/mL; in data set [6] (BID Dose 5 mg), 6.16 (1.85) ng*hr/mL; in data set [6] (BID Dose 10 mg) it was 15.2 (5.52) ng*hr/mL. In addition, the figures for the “Cmax, Mean (SD)” value in data set [6] (BID Dose 2.5 mg), in data set [6] (BID Dose 5 mg) and in data set [6] (BID Dose 10 mg) were 1.32 (0.62) ng/mL, 2.96 (1.81) ng/mL and 7.88 (4.54) ng/mL, respectively. The “Median Tmax (range)” value is reported as 1.00 (0.50-4.00) hr in data set [6] (BID Dose 2.5 mg), 2.50 (0.50-4.00) hr in data set [6] (BID Dose 5 mg) and 1.50 (0.50-3.50) hr in [6] (BID Dose 10 mg). Also, in data set [7] (animal model of cytokine storm induced ARF and/or ARDS), the Mortality result is “decrease mortality”. Further, in data set [7] (animal models), the “Prevention of death of animals that received a fatal dose of the biotoxin” value is “prevent the death of one hundred percent of all animals”.
In the case of `NCCO/N=C(\CCCC(=O)O)c1ccc(C(F)(F)F)cc1` [fluvoxamine acid], the Norepinephrine reuptake inhibition entry in data set [8] is “inactive”. Further, in [9], the “Inhibition of serotonin uptake” value is “weak effect” and the “Potency relative to the parent compound (less potent)” value was 1-2 orders of magnitude. In addition, the “Share of urinary excretion products” value in data set [10] (fluvoxamine acid together with its N-acetylated analog) was “about 60%”.
Consider `COCCCC/C(=N\OCCO)c1ccc(C(F)(F)F)cc1` [fluvoxamine ethanol], for which, in [10] (fluvoxamine ethanol), the “Share of urinary excretion products” value is recorded as “about 10%”.
As to `COCCCC/C(=N\OCCN)c1ccc(C(F)(F)F)cc1` [fluvoxamine maleate], the “Time of maximum plasma concentrations at steady state” value in data set [11] was 3 to 8 h.
As for `COCCCC/C(=N\OCCN)c1ccc(C(F)(F)F)cc1` [fluvoxamine, 2-[(E)-[5-methoxy-1-[4-(trifluoromethyl)phenyl]pentylidene]amino]oxyethanamine], the “Bound to plasma protein” value in data set [12] is reported as “Approximately 80%”; in data set [12] (listed as Fluvoxamine), 80%. Further, the “Affinity for muscarinic receptors” value in [13] is “no significant affinity”. The Decrease in clearance in data set [14] is 30%. The “Affinity for alpha adrenergic receptors” value in data set [15] was “no significant affinity”. In data set [16] (elderly patients), the Reduction of clearance result is listed as “about 50%”. Moreover, the “Multiple dose elimination half-life” value in data set [16] (elderly, 50 mg) is 17.4 h; in [16] (elderly, 100 mg), 25.9 h; in [16] (young subjects, 50 mg) it was 13.6 h; in [16] (young subjects, 100 mg), 15.6 h. Besides, in data set [17], the “Affinity for histaminergic receptors” value was “no significant affinity”. In addition, the Serotonin reuptake inhibition result in data set [18] is recorded as “potent serotonin reuptake inhibitor”. Moreover, the “Affinity for beta adrenergic receptors” value in data set [19] is given as “no significant affinity”. In addition, the “Affinity for dopaminergic receptors” value in data set [20] is “no significant affinity”. Moreover, the “Agonistic sigma-1 binding affinity” value in [21] was “strongest agonistic sigma-1 binding affinity”. Moreover, the “Mean plasma half-life at steady state” value in data set [10] (human, in vivo, po) was 15.6 h. Moreover, in data set [10] (in vivo), the “Excreted in urine unchanged” value was “Approximately 2%”.
